This assay deals with glucose dehydrogenase mutant 2. The following applies: cNAD instead of NAD, increasing amounts of nicotinic acid. How it is done: Methods: test elements with added nicotinic acid were prepared and analog to Example 1, but with adding coenzyme cNAD (see, Int'l Patent Application Publication No. WO 2007/012494) instead of NAD (same amount on molar basis).
Consequently, test elements were stored: (a) in open vials at 85% r.h. and 35° C., or (b) in closed vials with desiccant at 35° C.

`O=C(O)c1cccnc1` [nicotinic acid, pyridine-3-carboxylic acid]: the “stabilizing effect on remaining enzymatic activity, dry conditions” value (closed vials with desiccant at 35° C., FIG. 3b) was “significant stabilizing effect”. Besides, the “stabilizing effect on remaining enzymatic activity, humid conditions” value (open vials at 85% r.h. and 35° C., FIG. 3a) is reported as “significant stabilizing effect”.

Values taken from patent publication US20160108391A1, “REAGENT COMPOSITIONS HAVING PYRIDINE-CARBOXYLIC ACID-[…], AS WELL AS METHODS OF MAKING AND USING THE SAME” (Roche Diabetes Care, Inc., priority 2013, published 2016).
